Experimental data as given in patent publication US20080139620A1, “Pyrazole Derivatives For The Inhibition Of Cdk's And Gsk's” (ASTEX THERAPEUTICS LIMITED, priority 2005, published 2008).

Key:
Activated CDK2/CyclinA = Activated CDK2/CyclinA (Homo sapiens, UniProt P24941); assay: Activated CDK2/CyclinA kinase inhibitory activity assay; type: biochemical
Protocol: Compounds of the invention were tested for kinase inhibitory activity using the following protocol.
The reaction is allowed to proceed for 2 to 4 hours before being stopped with an excess of ortho-phosphoric acid (5 μl at 2%). γ^33P-ATP which remains unincorporated into the histone H1 is separated from phosphorylated histone H1 on a Millipore MAPH filter plate. The wells of the MAPH plate are wetted with 0.5% orthophosphoric acid, and then the results of the reaction are filtered with a Millipore vacuum filtration unit through the wells. Following filtration, the residue is washed twice with 200 μl of 0.5% orthophosphoric acid. Once the filters have dried, 20 μl of Microscint 20 scintillant is added, and then counted on a Packard Topcount for 30 seconds.

[1] = tested on: human tumour derived cell lines; assay: Xenograft studies, human tumour derived cell lines implanted sub-cutaneously; type: in vivo, nude mice; details: dosed orally
Excerpt: These biomarkers include suppression of phosphorylation of substrates of the cyclin dependent kinases e.g. retinoblastoma protein.

[2] = Determination of oral bioavailability; type: in vivo; details: BALB/c, mouse, plasma, mice, 5 mg/kg PO vs 1 mg/kg IV
Protocol: The oral bioavailability of the compounds of formula (I) may be determined as follows.
The test compound is administered as a solution both I.V. and orally to balb/c mice at the following dose level and dose formulations; • 1 mg/kg IV formulated in 10% DMSO/90% (2-hydroxypropyl)-β-cyclodextrin (25% w/v); and • 5 mg/kg PO formulated in 10% DMSO/20% water/70% PEG200.
At various time points after dosing, blood samples are taken in heparinised tubes and the plasma fraction is collected for analysis. The analysis is undertaken by LC-MS/MS after protein precipitation and the samples are quantified by comparison with a standard calibration line constructed for the test compound. The area under the curve (AUC) is calculated from the plasma level vs time profile by standard methods. The oral bioavailability as a percentage is calculated from the following equation: […]

HCT-116 cell line = assay: Anti-proliferative activity, Alamar Blue assay; type: cell-based, human; details: for IC50: HCT-116 human colon carcinoma, 72 hours, read-out: HCT-116 cell proliferation IC50
Protocol: The anti-proliferative activities of compounds of the invention can be determined by measuring the ability of the compounds to inhibition of cell growth in a number of cell lines. […] The method is based on the ability of viable cells to reduce resazurin to its fluorescent product resorufin. For each proliferation assay cells are plated onto 96 well plates and allowed to recover for 16 hours prior to the addition of inhibitor compounds for a further 72 hours. […] In the case of the non-proliferating cell assay cells are maintained at confluence for 96 hour prior to the addition of inhibitor compounds for a further 72 hours. The number of viable cells is determined by Alamar Blue assay as before. Cell lines can be obtained from the ECACC (European Collection of cell Cultures).

GSK3-β = target: T1, GSK3-β (Homo sapiens, UniProt P49841); assay: GSK3-B kinase inhibitory activity assay; type: biochemical; details: read-out: GSK3β IC50
T1 construct: purchased Upstate Discovery
T1 sequence (P49841 whole entry): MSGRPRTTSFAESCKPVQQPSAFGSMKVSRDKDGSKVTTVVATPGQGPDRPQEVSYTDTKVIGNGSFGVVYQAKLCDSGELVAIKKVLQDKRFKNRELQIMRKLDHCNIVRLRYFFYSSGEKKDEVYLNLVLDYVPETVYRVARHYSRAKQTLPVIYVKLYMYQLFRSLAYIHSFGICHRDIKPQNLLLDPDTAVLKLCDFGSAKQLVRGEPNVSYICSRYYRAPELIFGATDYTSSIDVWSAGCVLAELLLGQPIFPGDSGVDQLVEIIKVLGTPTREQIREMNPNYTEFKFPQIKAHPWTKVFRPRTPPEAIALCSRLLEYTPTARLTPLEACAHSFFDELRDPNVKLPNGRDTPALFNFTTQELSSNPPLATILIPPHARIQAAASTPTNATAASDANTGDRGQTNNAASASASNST
Protocol: The reaction is allowed to proceed for 3 hours (GSK3-β) before being stopped with an excess of ortho-phosphoric acid (5 μl at 2%). The filtration procedure is as for Activated CDK2/CyclinA assay above.

Row | Compound | in vitro kinase (CDK2) inhibitory activity compared to difluoro-analogue (Activated CDK2/CyclinA) | tumour biomarkers (phosphorylation of CDK substrates e.g. retinoblastoma protein) ([1]; nude mice xenografts) | tumour growth in xenografts ([1]; nude mice, sub-cutaneous xenografts) | bioavailability [2] [%] | IC50 (HCT-116 cell line) [nM] | anti-proliferative potency on HCT-116 compared to difluoro-analogue (HCT-116 cell line; human colon cancer HCT-116 cell line) | IC50 (Activated CDK2/CyclinA) [nM] | selectivity for CDK inhibition over GSK3β (Activated CDK2/CyclinA) [fold] | IC50 (GSK3-β) [nM]
1 | CS(=O)(=O)N1CCC(NC(=O)c2n[nH]cc2NC(=O)c2c(Cl)cccc2Cl)CC1 [Example 1, 4-(2,6-dichloro-benzoylamino)-1H-pyrazole-3-carboxylic acid (1-methanesulphonyl-piperidin-4-yl)-amide] | greater in vitro kinase (CDK2) inhibitory activity | inhibition of the tumour biomarkers | inhibition of tumour growth | 40 to 50 | 110 | 6-7 fold | – | – | –
2 | CS(=O)(=O)N1CCC(NC(=O)c2n[nH]cc2NC(=O)c2c(F)cccc2F)CC1 [Example 131 of PCT/GB2004/003179] | – | – | – | – | 740 | – | 2.2 | ~6 | 14
